Measured values reported in US4912107A, “Pyrrolocarbazole derivatives, compositions containing them, and methods for using them” (Goedecke Aktiengesellschaft, priority 1988, dated 1990).

Target: protein kinase C
Test: enzyme assay of protein kinase C activated with phosphatidylserine and diacylglycerol
Assay type: biochemical
Conditions: protein kinase C activated with phosphatidylserine and iacylglycerol; according to EP-OS 0 255 126; read-out: concentration giving 50% inhibition of protein kinase C
Procedure: Compounds of the present invention are potent inhibitors of protein kinases, such as protein kinase C. […] The experiment was carried out according to EP-OS 0 255 126 (inhibition of protein kinase C).

IC50: 580 nM
Structure (SMILES): CCn1c2ccccc2c2c3c(c(-c4ccccc4Cl)cc21)C(=O)NC3=O [Example 2a, 4-(2-Chlorophenyl)-6-ethyl-1,2,3,6-tetrahydro-1,3-dioxopyrrolo[3,4-c]carbazole]
